The test system of data set [1] is PDX-BR7. Description: MTT assay, PDX-BR7. The class given is cell-based. The settings on record: 24 h, PDX-BR7, PDX cell line, read-out: IC50 value after 24 hours of treatment. The source says: (§1) The 4T1 murine mammary tumor cell line and nine breast cancer cell lines representing the major breast cancer subtypes (ER+, HER2+, and TNBC) including MDA-MB-157, MDA-MB-436, MDA-MB-231, MDA-MB-453, MDA-MB-361, BT-474, SK-BR-3, MCF-7 and T47-D will be grown in RPMI or DMEM (Dulbecco's Modified Eagle Medium) media supplemented with 10% FBS (fetal bovine serum), 1% penicillin-streptomycin and 1% L-Glutamine. Patient derived xenograft cell lines BR7, BR11, and IBT will be established directly from breast cancer bone metastases specimens surgically resected from patients with informed consent. BR7 and BR11 specimens will be obtained from ER positive (HER2 negative and PR negative) metastatic breast cancer patients, while the IBT specimen will be obtained from a metastatic, triple negative breast cancer patient. Fresh tumor tissues will be quickly washed with ice cold PBS and minced into about 1-3 mm pieces in MEM medium (without FBS) using sterile razor blades. […] The cells will be treated with either 100 μM DMSO, AGX51, or a compound of the present technology such as AGX-A. The cell morphology and growth will be monitored daily for 1 week by microscopy for changes in morphology or cell death. […] Absorbance will then measured at 570 nm using a plate reader (Synergy 2, BioTek). […]
In general terms: Formazan colour is commonly taken as a measure of viable cells.

A short description of data set [2]: Concentration of AGX51 in the eyes after i.p. dosing. The format is in vivo, mouse. The settings on record: 30 mg/kg i.p. On the procedure: Pharmacokinetic analyses. To determine the pharmacokinetic parameters of AGX51, eight-week old male Balb/c mice (Taconic farms) were dosed once by i.p. injection with 30 mg/kg, 50 mg/kg or 100 mg/kg AGX51 prepared in 70% DMSO (n=3 mice per group). Another set of three mice was dosed with 100 mg/kg AGX51 prepared in 100% DMSO. Blood was collected at 30 minutes, 1 hour, 3 hours, 6 hours and 24 hours post AGX51 administration and plasma analyzed via LC-MS as per the protocol previously validated in the MSKCC Antitumor Assessment Core Facility. Following blood collection, the mice were sacrificed via CO2 asphyxiation and the eyes from the 30 mg/kg treatment group were collected and flash frozen for analysis. Data obtained from LC-MS was analyzed via WinNonLin software (version 8.1) for pharmacokinetic parameters.
The concentration of AGX51 was thus measured in the eyes of mice dosed i.p. with 30 mg/kg AGX51 by mass spectrometry over 24 hours. […] The amount of AGX51 reaching the eye was well below the amount required by intraocular injection to show efficacy, which could be due to incomplete recovery from the extraction of dissected eyes or that effective dose ranges vary considerably with delivery route.

The test system of data set [3] is BT-474. Description: MTT assay, BT-474. Also noted: scale not given here. Conditions: BT-474, HER-2 +ve cell line, 24 hours. The format is cell-based.
From the text: as §1

Data set [4] concerns retinal neovascularization. Description: Retinopathy of prematurity (ROP) model. The settings on record: intraocular injection 10 μg at P12, assessed P17, p<0.01. The format is in vivo, mouse. On the procedure:
In the ROP experiment 26 C57BL/6 pups, 36 Id^−/− and 22 Id3^−/− pups were place in 75% O2 at P7. On P12 the mice were returned to room air and at P17 they were euthanized and retinal neovascularization was measured as described above. In the AGX51 ROP experiment, C57BL/6 pups were place in 75% O2 at P7. On P12 the mice were returned to room air and injected in the eye with 10 μg AGX51 or DMSO in the FE (N=15 mice/group). On P17 they were euthanized and retinal neovascularization was measured as described above. Retinal neovascularization pathology can also be studied in mouse models of retinopathy of prematurity (ROP). In this model, post-natal day (P) 7 mice are placed in a 75% O2 chamber, which causes retinal capillary depletion. At P12, the mice are returned to room air, which leads to the development of retinal ischemia and proliferative vascular disease in the retinal vasculature. When this model was applied to Id1 or Id3 knockout mice, a significant decrease in retinal neovascularization was observed (p<0.0001) compared to wild type mice (FIG. 1C).

The subject of data set [5] is SK-BR-3. Description: MTT assay, SK-BR-3. The format is cell-based. The settings on record: Homo sapiens, 24 h, SK-BR-3, HER-2 +ve cell line, read-out: IC50 value after 24 hours of treatment.
From the text: as §1

The subject of data set [6] is T47-D. The experiment in a line: MTT assay, T47-D. The settings on record: ER +ve cell line, 24 hours. The format is cell-based.
From the text: as §1

The subject of data set [7] is lung metastases. Description: LLC metastasis model. The class given is in vivo, mouse. The settings on record: daily ip. As to the method: Thirty C57BL/6 mice will be implanted with 7.5×10^5 LLC cancer cells/animal. Seven days after implantation, 5M/5F per group will be treated daily ip for 25 days with dosing vehicle (DMSO), AGX51, or a compound of the present technology (such as AGX-A). Fourteen days after implantation, another group of 5M/5F animals will be treated daily ip for 18 days with 50 mg/kg of AGX51 and another group of 5M/5F animals will be treated daily ip for 18 days with a compound of the present technology (such as AGX-A). Tumors will be measured three times from Day 7 to 14. On Day 14, the tumors will be excised. The animals will be necropsied for the presence of lung metastases on day 32, 18 days post excision.

The IC50 is the midpoint of a concentration-inhibition curve.

Turning to `CCC(=O)N(CCC(c1ccc2c(c1)OCO2)c1ccccc1OC)Cc1ccccc1` (racemic) [AGX51, N-(3-(benzo[d][1,3]dioxol-5-yl)-3-(2-methoxyphenyl)propyl)-N-benzylpropionamide], the IC50 stood at 10.9 µM in data set [1] and 36.6 µM in data set [5]. Besides, the “half-life in the eye” value in data set [2] came out at 3.7 h. In addition, the “maximum concentration in the eye” value in data set [2] (after 30 minutes) is given as roughly 4 ng/eye. The “percentage at 60 μM (IC50 NA)” value was “NA (60 μM = 53%)” in data set [3] and “NA (60 μM = 65%)” in data set [6]. For the same compound, in data set [4], the retinal neovascularization result was “significantly reduced retinal neovascularization”. The lung metastases entry in data set [7] is “profoundly diminish lung metastases”.
